ChEMBL document CHEMBL1126088, “Conformational analysis of dopamine D-2 receptor antagonists of the benzamide series in relation to a recently proposed D-2 receptor-interaction model” (J Med Chem, 1992)

Test: Effective dose of the compound
Type: functional

| SMILES | ED50 [mg/kg] |
| --- | --- |
| COc1cc(N)c(Cl)cc1C(=O)NC1CCN2CC(c3ccccc3)CC2C1 (stereo not drawn) | 0.024 |
| COc1cc(N)c(Cl)cc1C(=O)NC1CCN(Cc2ccccc2)CC1 [CLEBOPRIDE] | 0.037 |
| CCN(CC)CCNC(=O)c1cc(Cl)c(N)cc1OC [METOCLOPRAMIDE] | 0.75 |
